Source: patent US4071627A, “2-Oximino-tetrahydro-1,4-thiazin-5-one compounds and pesticidal carbamate derivatives” (priority 1976, dated 1978)

Assays:
Type in all cases: in vivo
Design in all cases: key: A: excellent control; B: partial control; C: no control
[1] = system: Mexican bean beetle (Epilachna varivestis, Muls.); test: Mexican Bean Beetle Leaf Spray Test; conditions: 500 ppm, three days, fourth instar larvae
Protocol: (§1) Suspensions of the test compounds were prepared by dissolving one gram of compound in 50 milliliters of acetone in which had been dissolved 0.1 gram (10 percent of the weight of compound) of an alkylphenoxy polyethoxyethanol surfactant, as an emulsifying or dispersing agent. The resulting solution was mixed into 150 milliliters of water to give roughly 200 milliliters of a suspension containing the compound in finely divided form. The thus-prepared stock suspension contained 0.5 percent by weight of test compound. The test concentrations in parts per million by weight employed in the tests described hereinbelow were obtained by appropriate dilutions of the stock suspension with water. The test procedures were as follows:
Fourth instar larvae of the Mexican bean beetle (Epilachna varivestis, Muls.), reared on Tendergreen bean plants at a temperature of 80°±5° F. and 50±5 percent relative humidity, were the test insects.
The test compounds were formulated by diluting the stock suspension with water to give a suspension containing 500 parts of test compound per million parts of final formation. Potted Tendergreen bean plants of standard height and age were placed on a revolving turntable and sprayed with 100-110 milliliters of test compound formulated by use of a DeVilbiss spray gun set at 10 psig air pressure. This application, which lasted 25 seconds, was sufficient to wet plants to run-off. As a control, 100-110 milliliters of a water-acetone-emulsifier solution containing no test compound were also sprayed on infested plants. When dry, the paired leaves were separated and each was placed in a 9 centimeter Petri dish lined with moistened filter paper. Five randomly selected larvae were introduced into each dish, and the dishes were closed. The closed dishes were labeled and held at a temperature of 80°±5° F. for three days. Although the larvae could easily consume the leaf within 24 to 48 hours, no more food was added. Larvae which were unable to move the length of the body, even upon stimulation, were considered dead.
(§2) In these tests the pesticidal activity of the compounds against aphid, mite, Southern Armyworm, Mexican Bean Beetle, and house fly was rated as follows: […]

[2] = system: southern armyworm (Prodenia eridania, (Cram.)); test: Southern Armyworm Leaf Spray Test; conditions: 500 ppm, three days, larvae
Protocol: as §1
Larvae of the southern armyworm (Prodenia eridania, (Cram.)), reared on Tendergreen bean plants at a temperature of 80°±5° F. and a relative humidity of 50±5 percent, constituted the test insects.
The test compounds were formulated by diluting the stock suspension with water to give a suspension containing 500 parts of test compound per million parts of final formulation. Potted Tendergreen bean plants of standard height and age were placed on a revolving turntable and sprayed with 100-110 milliliters of test compound formulation by use of a DeVilbiss spray gun set at 10 psig air pressure. This application, which lasted 25 seconds, was sufficient to wet plants to run-off. As a control, 100-110 milliliters of a water-acetone-emulsifier solution containing no test compound were also sprayed on infested plants. When dry, the paired leaves were separated and each one was placed in a 9 centimeter Petri dish lined with moistened filter paper. Five randomly selected larvae were introduced into each dish and the dishes were closed. The closed dishes were labeled and held at 80°-85° F. for three days. Although the larvae cound easily consume the whole leaf within 24 hours, no more food was added. Larvae which were unable to move the length of the body, even upon stimulation by prodding, were considered dead. Percent mortality was […] for various concentration levels.
as §2

[3] = system: house flies (Musca domestica, L.); test: Fly Bait Test; conditions: 500 ppm, 24 hours, adults
Protocol: as §1
Four to six day old adult house flies (Musca domestica, L.), reared according to the specifications of the Chemical Specialities Manufacturing Association (Blue Book, McNair-Dorland Co., N.Y. 1954; pages 243-244, 261) under controlled conditions of 80°±5° F. and 50±5 percent relative humidity, were the test insects. The flies were immobilized by anesthetizing with carbon dioxide and 25 immobilized individuals, males and females, were transferred to a cage consisting of a standard food strainer about 5 inches in diameter which was inverted over a wrapping-paper-covered surface. The test compounds were formulated by diluting the stock suspension with a 10 percent (by weight) sugar solution to give a suspension containing 500 parts of test compound per million parts of final formulation, by weight. Ten milliliters of the test formulation were added to a souffle cup containing a 1-inch square of an absorbent cotton pad. This bait cup was introduced and centered on the blotting paper under the food strainer prior to admitting the anesthetized flies. The caged flies were allowed to feed on the bait for 24 hours, at a temperature of 80°±5° F. and the relative humidity of 50±5 percent.
as §2

[4] = system: bean aphid (Aphis fabae Scop.); test: Bean Aphid Foliage Spray Test; conditions: 500 ppm, 24 hours, adults and nymphs
Protocol: as §1
Adults and nymphal stages of the bean aphid (Aphis fabae Scop.) reared on potted dwarf nasturtium plants at 65°-70° F. and 50-70 percent relative humidity, constituted the test insects. For testing purposes, the number of aphids per pot was standardized to 100-150 by trimming plants containing excess aphids.
The test compounds were formulated by diluting the stock suspension with water to give a suspension containing 500 parts of test compound per million parts of final formulation.
The potted plants (one pot per compound tested) infested with 100-150 aphids, were placed on a revolving turntable and sprayed with 100-110 milliliters of test compound formulated by use of a DeVilbiss spray gun set at 40 psig. air pressure. This application, which lasted 25 seconds, was sufficient to wet the plants to run-off. As a control, 100-110 milliliters of a water-acetone-emulsifier solution containing no test compound were also sprayed on infested plants. After spraying, the pots were placed on their sides on a sheet of white standard mimeograph paper which had been previously ruled to facilitate counting. Temperature and humidity in the test room during the 24 hour holding period were 65°-70° F. and 50-70 percent, respectively. Aphids which fell onto the paper and were unable to remain standing after being uprighted were considered dead. Aphids remaining on the plants were observed closely for movement and those which were unable to move the length of the body upon stimulation by prodding were considered dead. Percent mortality was recorded for various concentration levels.
as §2

[5] = system: two-spotted mite (Tetranychus urticae Koch); test: Mite Foliage Spray Test; conditions: 500 ppm, six days, adults and nymphs
Protocol: as §1
Adults and nymphal stages of the two-spotted mite (Tetranychus urticae Koch), reared on Tengergreen bean plants at 80±5 percent relative humidity, were the test organisms. Infested leaves from a stock culture were placed on the primary leaves of two bean plants 6 to 8 inches in height, growing in a 21/2 inch clay pot. 150-200 Mites, a sufficient number for testing, transferred from the excised leaves to the fresh plants in a period of 24 hours. Following the 24 hour transfer period, the excised leaves were removed from the infested plants. The test compounds were formulated by diluting the stock suspension with water to give a suspension containing 500 parts of test compound per million parts of final formulation. The potted plants (one pot per compound) were placed on a revolving turntable and sprayed with 100-110 milliliters of test compound formulation by use of a DeVilbiss spray gun set at 40 psig. air pressure. This application, which lasted 25 seconds, was sufficient to wet the plants to run-off. As a control, 100-110 milliliters of a water solution containing acetone and emulsifier in the same concentrations as the test compound formulation, but containing no test compound, were also sprayed on infested plants. The sprayed plants were held at 80±5 percent relative humidity for six days, after which a mortality count of motile forms was made. Microscopic examination for motile forms was made on the leaves of the test plants. Any individual which was capable of locomotion upon prodding was considering living.
as §2

CCN1C(=O)CSC(=NO)C1C (stereo not shown) [2-Oximino-4-ethyl-3-methyltetrahydro-1,4-thiazin-5-one]
Biological Activity, Mexican Bean Beetle [1]: C
Biological Activity, Southern Armyworm [2]: C
Biological Activity, House Fly [3]: C
Biological Activity, Aphid [4]: C
Biological Activity, Mite [5]: C

CN(SN1CCOCC1)C(=O)ON=C1SCC(=O)NC1(C)C [2-[O-(N-Morpholinosulfenyl-N-methylcarbamoyl)oximino]-3,3-dimethyltetrahydro-1,4-thiazin-5-one]
Biological Activity, Mexican Bean Beetle [1]: A
Biological Activity, Southern Armyworm [2]: A
Biological Activity, House Fly [3]: A
Biological Activity, Aphid [4]: A

CNC(=O)ON=C1SCC(=O)N(C)C1(C)C [2-[O-(Methylcarbamoyl)oximino]-3,3,4-trimethyltetrahydro-1,4-thiazin-5-one]
Biological Activity, Mexican Bean Beetle [1]: A
Biological Activity, Southern Armyworm [2]: B
Biological Activity, House Fly [3]: A
Biological Activity, Aphid [4]: B
Biological Activity, Mite [5]: A

CNC(=O)ON=C1SCC(=O)N(C)C1C (stereo not shown) [2-[O-(methylcarbamoyl)oximino]-3,4-dimethyltetrahydro-1,4-thiazin-5-one]
Biological Activity, Mexican Bean Beetle [1]: A
Biological Activity, Southern Armyworm [2]: C
Biological Activity, House Fly [3]: A
Biological Activity, Aphid [4]: A
Biological Activity, Mite [5]: A

CNC(=O)ON=C1SCC(=O)N(C(C)C)C1C (stereo not shown) [2-[O-(Methylcarbamoyl)oximino]-4-isopropyl-3-methyltetrahydro-1,4-thiazin-5-one]
Biological Activity, Mexican Bean Beetle [1]: C
Biological Activity, Southern Armyworm [2]: C
Biological Activity, House Fly [3]: A
Biological Activity, Aphid [4]: C
Biological Activity, Mite [5]: B

CC(=O)N(C)C(=O)ON=C1SCC(=O)N(C)C1C (stereo not shown) [2-[O-(N-Acetyl-N-methylcarbamoyl)oximino]-3,4-dimethyltetrahydro-1,4-thiazin-5-one]
Biological Activity, Mexican Bean Beetle [1]: C
Biological Activity, Southern Armyworm [2]: A
Biological Activity, House Fly [3]: C
Biological Activity, Aphid [4]: C
Biological Activity, Mite [5]: C

CN1C(=O)CSC(=NO)C1(C)C [2-Oximino-3,3,4-trimethyltetrahydro-1,4-thiazin-5-one]
Biological Activity, Mexican Bean Beetle [1]: C
Biological Activity, Southern Armyworm [2]: C
Biological Activity, House Fly [3]: C
Biological Activity, Aphid [4]: C
Biological Activity, Mite [5]: C

CNC(=O)ON=C1SCC(=O)N(CC(C)C)C1C (stereo not shown) [2-[O-(Methylcarbamoyl)oximino]-4-isobutyl-3-methyltetrahydro-1,4-thiazin-5-one]
Biological Activity, Mexican Bean Beetle [1]: C
Biological Activity, Southern Armyworm [2]: C
Biological Activity, House Fly [3]: A
Biological Activity, Aphid [4]: C
Biological Activity, Mite [5]: C

CCN1C(=O)CSC(=NOC(=O)NC)C1C (stereo not shown) [2-[O-(Methylcarbamoyl)oximino]-4-ethyl-3-methyltetrahydro-1,4-thiazin-5-one]
Biological Activity, Mexican Bean Beetle [1]: B
Biological Activity, Southern Armyworm [2]: B
Biological Activity, House Fly [3]: A
Biological Activity, Aphid [4]: B
Biological Activity, Mite [5]: A

CC1C(=NO)SCC(=O)N1C (stereo not shown) [2-Oximino-3,4-dimethyltetrahydro-1,4-thiazin-5-one]
Biological Activity, Mexican Bean Beetle [1]: C
Biological Activity, Southern Armyworm [2]: C
Biological Activity, House Fly [3]: C
Biological Activity, Mite [5]: C

CCCCN1C(=O)CSC(=NOC(=O)NC)C1C (stereo not shown) [2-[O-(Methylcarbamoyl)oximino]-4-butyl-3-methyltetrahydro-1,4-thiazin-5-one]
Biological Activity, Mexican Bean Beetle [1]: B
Biological Activity, Southern Armyworm [2]: C
Biological Activity, House Fly [3]: B
Biological Activity, Aphid [4]: C
Biological Activity, Mite [5]: C

CNC(=O)ON=C1SCC(=O)NC1(C)C [2-[O-(Methylcarbamoyl)oximino]-3,3-dimethyltetrahydro-1,4-thiazin-5-one]
Biological Activity, Mexican Bean Beetle [1]: A
Biological Activity, Southern Armyworm [2]: A
Biological Activity, House Fly [3]: A
Biological Activity, Aphid [4]: A
Biological Activity, Mite [5]: A

CC(C)CN1C(=O)CSC(=NO)C1C (stereo not shown) [2-Oximino-4-isobutyl-3-methyltetrahydro-1,4-thiazin-5-one]
Biological Activity, Mexican Bean Beetle [1]: C
Biological Activity, Southern Armyworm [2]: C
Biological Activity, House Fly [3]: C
Biological Activity, Aphid [4]: C
Biological Activity, Mite [5]: C

CCCCN1C(=O)CSC(=NO)C1C (stereo not shown) [2-Oximino-4-butyl-3-methyltetrahydro-1,4-thiazin-5-one]
Biological Activity, Mexican Bean Beetle [1]: C
Biological Activity, Southern Armyworm [2]: C
Biological Activity, House Fly [3]: C
Biological Activity, Aphid [4]: C
Biological Activity, Mite [5]: C

CN(C)SN(C)C(=O)ON=C1SCC(=O)NC1(C)C [2-[O-(N-Dimethylaminosulfenyl-N-methylcarbamoyl)oximino]-3,3-dimethyltetrahydro-1,4-thiazin-5-one]
Biological Activity, Mexican Bean Beetle [1]: A
Biological Activity, Southern Armyworm [2]: A
Biological Activity, House Fly [3]: A
Biological Activity, Aphid [4]: A
Biological Activity, Mite [5]: A
